Read-outs that look alike come from different tables or passages of the source.
Assays:
Assay type in all cases: biochemical, Corynebacterium glutamicum
[1] = tested on: 3-deoxy-D-arabino-hepturosonate-7-phosphate synthase (DS); assay: Inhibition of DS activity by phenylalanine and tyrosine; conditions: DS in the ATCC 13032 transformant carrying pCGDS1
Method: DS activities of Corynebacterium glutamicum ATCC 13032 and the transformant carrying pCGDS1 were determined according to the method of P. R. Sprinavasan, D. B. Sprinson, et al. [J. Biol. Chem., 234, 716 (1959)].

[2] = tested on: anthranilate phosphoribosyl transferase (PRT); assay: Feedback inhibition of anthranilate phosphoribosyl transferase (PRT) activity by tryptophan; conditions: for IC50: read-out: Tryptophan concentration for 50% inhibiting the PRT activity
Method: (§1) AS activities of Corynebacterium glutamicum ATCC 13032 and TA108 strains carrying pCtrp1 or pCtrp57 were determined according to the method of H. Hagino, et al. [Agric. Biol. Chem., 39, 323 (1975)], and their PRT activities were determined according to the method of J. Ito and C. Yanofsky [J. Biol. Chem., 97, 734 (1969)]. AS and PRT activities of TA108 strains carrying pCtrp1 or pCtrp57 were more than 10 times as high as those of ATCC 13032 strain. Tryptophan concentrations for 50% inhibiting the AS activities of […] strain, TA108 strain carrying pCtrp1 and TA108 strain carrying pCtrp57 were 0.002 mM, 0.008 mM and 4.0 mM, respectively, while tryptophan concentrations for 50% inhibiting the PRT activities of these three strains were 0.19 mM, 0.19 mM and 4.8 mM, respectively.

[3] = tested on: anthranilate synthase (AS); assay: Feedback inhibition of anthranilate synthase (AS) activity by tryptophan; conditions: for IC50: read-out: Tryptophan concentration for 50% inhibiting the AS activity
Method: as §1

Compound: N[C@@H](Cc1ccccc1)C(=O)O [phenylalanine]
- Inhibition of DS [1]: free from inhibition

Compound: N[C@@H](Cc1c[nH]c2ccccc12)C(=O)O [tryptophan]
- Factor by which PRT is less sensitive to tryptophan ([2]; PRT encoded by pCtrp57 compared with PRT encoded by pCtrp1): about 25
- IC50 ([2]; PRT of TA108 strain carrying pCtrp1): 190 µM
- IC50 ([2]; PRT of TA108 strain carrying pCtrp57): 4800 µM
- Factor by which AS is less sensitive to tryptophan ([3]; AS encoded by pCtrp57 compared with AS encoded by pCtrp1): about 500
- IC50 ([3]; AS of TA108 strain carrying pCtrp1): 8 µM
- IC50 ([3]; AS of TA108 strain carrying pCtrp57): 4000 µM

Compound: N[C@@H](Cc1ccc(O)cc1)C(=O)O [tyrosine]
- Inhibition of DS [1]: free from inhibition

Reference: US5563052A, “Process for producing L-tryptophan” (Kyowa Hakko Kogyo Co., LTD, priority 1988, dated 1996)
